We go through one substance from patent publication US7244557B2, “Method of screening modulators of Nod1 signaling” (Regents of the University of Michigan, priority 2003, dated 2007).

The target in this assay is T1, NOD1ΔLRR (Homo sapiens, UniProt Q9Y239).
T1 construct: pcDNA3-NOD1-ΔLRR(1–648)-FLAG; expressed in transfected cells; host or cells: HEK293T
T1 sequence (Q9Y239 1-648): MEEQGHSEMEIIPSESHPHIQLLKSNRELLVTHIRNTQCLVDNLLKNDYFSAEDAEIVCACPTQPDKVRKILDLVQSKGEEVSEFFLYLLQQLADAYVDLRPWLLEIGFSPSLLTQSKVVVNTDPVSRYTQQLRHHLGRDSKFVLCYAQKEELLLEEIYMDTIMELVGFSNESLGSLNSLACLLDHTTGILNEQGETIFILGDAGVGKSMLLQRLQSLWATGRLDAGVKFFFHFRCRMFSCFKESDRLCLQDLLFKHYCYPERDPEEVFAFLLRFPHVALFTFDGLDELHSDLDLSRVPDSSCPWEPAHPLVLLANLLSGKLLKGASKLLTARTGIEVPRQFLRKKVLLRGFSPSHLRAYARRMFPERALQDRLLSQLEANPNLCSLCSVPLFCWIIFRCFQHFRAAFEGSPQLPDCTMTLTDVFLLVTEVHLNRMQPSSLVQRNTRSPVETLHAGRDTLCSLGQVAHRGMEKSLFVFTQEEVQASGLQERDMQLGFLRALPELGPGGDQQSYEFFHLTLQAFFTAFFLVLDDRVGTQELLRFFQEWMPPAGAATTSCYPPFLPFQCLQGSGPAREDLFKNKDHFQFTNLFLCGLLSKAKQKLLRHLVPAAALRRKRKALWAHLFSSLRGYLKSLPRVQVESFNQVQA
The assay is described as follows: NF-κB activation assay, cells expressing mutant NOD1 lacking LRRs. It counts as cell-based. The procedure: A) Structure of purified PGN fraction from B. subtilis (GM3P) and synthetic PGN-related compounds used in the study. B) Structure of MDP and four copies of GlcNAc-MurNAc with attached L-Ala-γ-D-Gln (4 mer) are indicated by closed and dotted boxes, respectively. C) The ability of cells were transfected with 0.3 ng pcDNA3-NOD1-Flag, 0.1 ng pcDNA3-Nod2 (NOD2) or vector control and reporter pBxIV-luc and pEF-BOS-β-gal plasmids to activate NF-κB. D) The ability of synthetic peptides, iE-DAP and iQ-DAP to stimulate NF-κB activation in the presence of control vector (−) and plasmids encoding NOD1 wild-type, mutant NOD1 lacking LRRs (NOD1ΔLRR) and NOD2. E) The ability of iE-DAP, iQ-DAP and sBLP (1 μg/ml) to activate NF-κB.
Reagents. LPS from S. typhimurium, intact and alkaline-detoxified LPS from E. coli O55:B5 as well as purified lipid A preparations of E. coli F583, MDP, DAP and dsRNA were obtained from Sigma-Aldrich (St. Louis, Mo.). PGN from S. aureus was from Fluka-Chemie (Buchs, Germany). Palmitoyl-Cys ((RS)-2,3-di(palmitoyloxy)-propyl)-Ala-Gly) (sBLP), was obtained from Bachem (Torrance, Calif.). […] The amino acid composition of E. coli O55:B5 LPS was determined using AccQ·Tag amino acid analysis system (Waters, Milford, Mass.) after hydrolysis at 110° C. for 24 hr. […]

As to “γ-D-glutamy-meso-diaminopimelic acid [iE-DAP]”, the “NF-κB activation by mutant NOD1 lacking the LRRs” value was “did not respond”.
